# Assay results published in PMC8305076, “Comprehensive Evaluation of Biological Effects of Pentathiepins on Various Human Cancer Cell Lines and Insights into Their Mode of Action” (International Journal of Molecular Sciences, 2021).
# Where two headings read alike, the source gives them in different places.
# Experiments:
# Format in all cases: cell-based
# [1] = test system: panel of 14 human cancer cell lines; test: MTT cell viability assay, whole panel; design: key to Cytotoxicity: no impact (0); weak impact (+); strong impact (++); conditions: for Cytotoxicity: summary grade
# Protocol: (§1) Distinct MTT cell viability and crystal violet cell proliferation assays were performed to assess the cytotoxicity of the compounds 1–6 on 14 human cancer cell lines. In the viability assay, cells with intact mitochondria and thus active dehydrogenases are competent to convert MTT to the corresponding insoluble formazan. The formazan can be photometrically detected after solubilization and allows for indirect conclusions about the viability of the cells as an IC50 value. In the crystal violet assay, cells are stained by the binding of the dye to the chromatin, thus allowing for a quantification of biomass that remains adherent after a treatment in comparison with a control after a specific time. Potency is defined as the growth inhibitory concentration 50% (GI50).
# (§2) In addition to performing the cell viability assay under normoxia (19% atmospheric oxygen), incubations were also conducted under hypoxic conditions, i.e., atmospheric oxygen levels of 1% during the treatment for 48 h. Hypoxia is a favorable condition of the tumor microenvironment that is connected with poor outcome. Therefore, the low oxygen condition mimics better the tumor environment. The biological effect of the pentathiepins under this condition provides insight into their dependency for oxygen, which has been postulated a key component in the proposed mechanism of action (Figure 3). Consistent with the proposed mechanism of action for five of the compounds, potency decreased under hypoxic conditions; in fact for 6, the half-maximal inhibitory concentration exceeded the highest tested concentration of 10 µM in four cell lines (Figure 6, Table S3). […] In contrast to the other compounds, in some cell lines, the cytotoxic effects of 1 were more pronounced under oxygen-reduced incubation conditions (Figure 6), indicating a tangential role of oxygen availability for this pentathiepin. Especially for the breast cancer cell line MCF-7, the cytotoxicity increased substantially, indicated by a decrease of the IC50 from >10.0 µM to about 1.0 µM.
# The effect of the pentathiepins on the viability of the cell lines was assessed via an MTT assay, performed as previously described. Healthy and viable cells convert the yellow soluble 3-(4,5-dimethylthiazol-2-yl)-2,5-diphenyltetrazolium bromide to the insoluble purple corresponding formazan, which can be spectrophotometrically measured. For this assay, 5000 cells (1 250 for LCLC-103H) in 0.1 mL of medium were seeded per well of a 96-well plate and incubated at standard conditions for 24 h prior to treatment. A serial dilution of the test compounds was prepared in medium, covering final concentrations from 10.0 to 0.04 µM, and 0.1 mL of the working solution was added to each well in triplicate. After 48 h, 20 µL of a 2.5 mg/mL MTT in PBS solution was pipetted into each well and further incubated for 4 h at standard conditions. Thereafter, medium was replaced with 50 µL DMSO, and the plates were put on a shaker for 5 min and subsequently read at λ = 570 nm, with a SpectraMax 384plus (Molecular Devices, Sunnyvale, CA, USA). The cell viabilities of the treatment conditions were calculated in relation to a solvent control sample. The absolute IC50 was calculated via nonlinear regression followed by interpolation of the dose–response graphs in Prism 7 (GraphPad, San Diego, CA, USA). The IC90 was derived from the IC50 by using the slope factor of the dose–response graph with the tool QuickCalcs from GraphPad (GraphPad Software, San Diego, CA, USA). […]
# Siso = test: MTT cell viability assay; conditions: Homo sapiens; for IC50: 48 h; for IC90: calculated via GraphPad QuickCalcs from MTT IC50 and slope factor
# Protocol: as §1, §2
# (§3) The effect of the pentathiepins on the viability of the cell lines was assessed via an MTT assay, performed as previously described. Healthy and viable cells convert the yellow soluble 3-(4,5-dimethylthiazol-2-yl)-2,5-diphenyltetrazolium bromide to the insoluble purple corresponding formazan, which can be spectrophotometrically measured. For this assay, 5000 cells (1 250 for LCLC-103H) in 0.1 mL of medium were seeded per well of a 96-well plate and incubated at standard conditions for 24 h prior to treatment. A serial dilution of the test compounds was prepared in medium, covering final concentrations from 10.0 to 0.04 µM, and 0.1 mL of the working solution was added to each well in triplicate. After 48 h, 20 µL of a 2.5 mg/mL MTT in PBS solution was pipetted into each well and further incubated for 4 h at standard conditions. Thereafter, medium was replaced with 50 µL DMSO, and the plates were put on a shaker for 5 min and subsequently read at λ = 570 nm, with a SpectraMax 384plus (Molecular Devices, Sunnyvale, CA, USA). The cell viabilities of the treatment conditions were calculated in relation to a solvent control sample. The absolute IC50 was calculated via nonlinear regression followed by interpolation of the dose–response graphs in Prism 7 (GraphPad, San Diego, CA, USA). The IC90 was derived from the IC50 by using the slope factor of the dose–response graph with the tool QuickCalcs from GraphPad (GraphPad Software, San Diego, CA, USA).
# A2780cis = test: MTT cell viability assay; conditions: Homo sapiens, 48 h
# Protocol: as §1, §2, §3
# LCLC-103H = test: MTT cell viability assay; conditions: Homo sapiens, 48 h
# Protocol: as §1, §2, §3
# HAP-1.KO.GPx1 = test: MTT cell viability assay; conditions: Homo sapiens; for IC50: 48 h; for IC90: calculated via GraphPad QuickCalcs from MTT IC50 and slope factor
# Protocol: as §1, §2, §3
# RT-4 = test: MTT cell viability assay; conditions: Homo sapiens, 48 h
# Protocol: as §1, §2, §3
# A2780 = test: MTT cell viability assay; conditions: Homo sapiens; for IC50: 48 h; for IC90: calculated via GraphPad QuickCalcs from MTT IC50 and slope factor
# Protocol: as §1, §2, §3
# HAP-1 = test: MTT cell viability assay; conditions: Homo sapiens; for IC50: HAP1, 48 h; for IC90: HAP1, calculated via GraphPad QuickCalcs from MTT IC50 and slope factor
# Protocol: as §1, §2, §3
# RT-112 = test: MTT cell viability assay; conditions: Homo sapiens, 48 h
# Protocol: as §1, §2, §3
# PATU-8902 = test: MTT cell viability assay; conditions: Homo sapiens; for IC50: 48 h; for IC90: calculated via GraphPad QuickCalcs from MTT IC50 and slope factor
# Protocol: as §1, §2, §3
# [2] = Homo sapiens, mean over the cell line panel, hypoxic, read-out: IC50 MTT-H, mean per compound
# [3] = Homo sapiens, mean over the cell line panel, normoxic, read-out: IC50 MTT-N, mean per compound
# [4] = hypoxic (1% O2), read-out: IC50 MTT-H mean
# [5] = normoxic (19% O2), read-out: IC50 MTT-N mean
SMILES,"IC50 [1, 2]","IC50 [1, 3]",Cytotoxicity [1],IC50 (Siso; [4]),IC50 (Siso; [5]),IC90 (Siso),IC50 (A2780cis; [4]),IC50 (A2780cis; [5]),IC50 (LCLC-103H; [4]),IC50 (LCLC-103H; [5]),IC50 (HAP-1.KO.GPx1; [4]),IC50 (HAP-1.KO.GPx1; [5]),IC90 (HAP-1.KO.GPx1),IC50 (RT-4; [4]),IC50 (RT-4; [5]),IC50 (A2780; [4]),IC50 (A2780; [5]),IC90 (A2780),IC50 (HAP-1; [4]),IC50 (HAP-1; [5]),further results
"CCOc1c2c(c3ccc(C(=O)N4CCOCC4)cn13)SSSSS2 [Compound 3, (6-Ethoxy-[1,2,3,4,5]pentathiepino[6,7-a]indolizin-9-yl)(morpholino)methanone]",1720 nM,789 nM,++,2730 nM,573 nM,1230 nM,316 nM,206 nM,820 nM,571 nM,911 nM,368 nM,800 nM,2310 nM,878 nM,616 nM,135 nM,360 nM,657 nM,263 nM,IC90 (HAP-1): 620 nM; IC50 (RT-112; [4]): 1470 nM; IC50 (RT-112; [5]): 1050 nM; IC50 (PATU-8902; [4]): 2340 nM; IC50 (PATU-8902; [5]): 1050 nM; IC90 (PATU-8902): 2480 nM
"CCOc1c2c(c3ccc(C(=O)N4CCN(C(=O)c5ccc(F)cc5)CC4)cn13)SSSSS2 [Compound 5, (6-Ethoxy-[1,2,3,4,5]pentathiepino[6,7-a]indolizin-9-yl)(4-(4-fluorobenzoyl)piperazinyl)methanone]",1290 nM,839 nM,++,1850 nM,794 nM,1470 nM,449 nM,308 nM,677 nM,800 nM,912 nM,413 nM,720 nM,1740 nM,716 nM,588 nM,259 nM,510 nM,661 nM,270 nM,IC90 (HAP-1): 490 nM; IC50 (RT-112; [4]): 1120 nM; IC50 (RT-112; [5]): 1080 nM; IC50 (PATU-8902; [4]): 1560 nM; IC50 (PATU-8902; [5]): 1200 nM; IC90 (PATU-8902): 2570 nM
"CCOc1c2c(c3ccc(C(=O)N4CCN(S(=O)(=O)c5ccc(C)cc5)CC4)cn13)SSSSS2 [Compound 6, (6-Ethoxy-[1,2,3,4,5]pentathiepino[6,7-a]indolizin-9-yl)(4-tosylpiperazinyl)methanone]",2460 nM,2360 nM,+,> 10000 nM,3260 nM,5070 nM,1720 nM,1510 nM,2530 nM,2820 nM,1840 nM,778 nM,1460 nM,5050 nM,1550 nM,2110 nM,891 nM,2390 nM,1320 nM,722 nM,"IC50 ([1]; Homo sapiens, hypoxic conditions, in four cell lines, exceeded highest tested concentration, read-out: half-maximal inhibitory concentration): > 10000 nM; IC50 ([1]; mean over the cell line panel, normoxic, read-out: IC50 MTT-N, mean per compound): 2360 nM; IC90 (HAP-1): 1460 nM; IC50 (RT-112; [4]): > 10000 nM; IC50 (RT-112; [5]): 3410 nM; IC50 (PATU-8902; [4]): > 10000 nM; IC50 (PATU-8902; [5]): 2980 nM; IC90 (PATU-8902): 7580 nM"
